Entries after “also recorded” stand apart in the source; their conditions may differ.

This is an account of results in US20030105121A1, “Method of preventing lipodystrophy syndrome or reversing a pre-existing syndrome in HIV-infected patients being treated with antiretroviral agents” (priority 1999, published 2003).

In data set [1] the test system is lipodystrophy syndrome. The following applies: in vivo; cited from earlier work.
In data set [2] the test system is HIV. Put plainly: Experience with low dose naltrexone treatment of HIV. Type of data set: in vivo, human. Particulars: low dose naltrexone alone. An excerpt: I have already disclosed in U.S. Pat. No. 4,888,346, issued Dec. 19, 1989, as a continuation of Ser. No. 06/916,180, filed Oct. 7, 1986, the administration of an essentially pure opiate receptor antagonist at a low dose level to patients suffering from acquired immune deficiency syndrome (or AIDS) in any of its known states, including AIDS-related complex. For this treatment, the amount of the essentially pure opiate receptor antagonist was required to be at a quite low level corresponding in results to those obtained by the administration of Naltrexone at a dosage level of from 1.0 mg. to 10 mg., preferably at a dosage level of 1.0 mg. to about 5 mg., and most preferably up to about 3.0 mg, all per day. At dosage levels above about 10 mg. per day, not only were the desired therapeutic results not obtained but the effect of the treatment appeared to be negative in acerbating the disease.

Data set [3] can be described thus: Long experience with low dose naltrexone: side effects. Type of data set: in vivo, human. The method, then:
Long experience has shown the perhaps three percent (3%) of patients receiving the drug at a 4.5 mg. dosage per day may suffer sleep disturbance lasting more than two or three days. Where this has been observed, reduction of the dosage to 3.0 mg. generally returns the sleep pattern to normalcy.

Data set [4] concerns lipodystrophy. Put plainly: Case histories (Examples a-g): LDN treatment of pre-existing lipodystrophy. Type of data set: in vivo, human. Particulars: for serum cholesterol after resuming naltrexone: Example a nine months (from 270), Example d 12 months (from 360). An excerpt: One will have noted that the above case experience was entirely focused on limiting the risk of patients who were at the time free of lipodystrophy symptoms developing such symptoms during their antiretroviral therapy. This is explained by the fact that due to historical circumstances, i.e. the only recent introduction of antiretroviral therapy, the patients in this group were all being treated with naltrexone as described before being exposed to antiretroviral therapy. […] This was not anticipated and is considered to be a quite surprising finding.

The conditions of data set [5]: human, in vivo. An excerpt: (§1) Because individual examples of treatment histories are of little value in discerning the effectiveness of a given treatment for HIV/AIDS infections, and especially effectiveness in reducing the likelihood of developing a highly variable side effect such as lipodystrophy, due among other things to wide differences in the initial extent of the infection as well as in the response of any given individual, a group of 85 different cases will be evaluated as a group in the following discussion. This number is believed to be a sufficiently large statistical sample to permit a reasonable judgment to be made of the effectiveness of the treatment of this invention.
The medication status of the group at the time of initiation of PI treatment was as follows: Due to historical circumstances, i.e. the predilection in view of the earlier patent of the applicant to treating HIV/AIDS patients with naltrexone, all individuals of the group were already receiving naltrexone at the low dosage level. Based on blood count of […] lymphocytes, individual clinical history and personal patient preference, 60 had already been receiving, or were started on, lamivudine (NA) while 49 of the 65 were also receiving zidovudine (NA) and 4 of the 69 were receiving a combination of lamivudine and stavovudine, bearing in mind that the NA group of antivirals had been available for the longest time. […] Patients already on any of the NA agents, as just specified, were continued on this treatment during the study. The remaining 25 were receiving no medications (other than naltrexone) at the start of the study.

The subject of data set [6] is HIV. Type of data set: in vivo. The following applies: four continuously undetectable patients, last six months of the study.
From the text: as §1
The medication status of the group at the time of initiation of PI treatment was as follows: Due to historical circumstances, i.e. the predilection in view of the earlier patent of the applicant to treating HIV/AIDS patients with naltrexone, all individuals of the group were already receiving naltrexone at the low dosage level. Based on blood count of […] lymphocytes, individual clinical history and personal patient preference, 60 had already been receiving, or were started on, lamivudine (NA) while 49 of the 65 were also receiving zidovudine (NA) and 4 of the 69 were receiving a combination of lamivudine and stavovudine, bearing in mind that the NA group of antivirals had been available for the longest time. […]

Setting [7] is: 3.0 mg qhs added to ARV, single cases.
Where [8] appears, read: 3.0 mg qhs added to ARV, single cases, listed as LDN.

On to `Cc1cn([C@H]2C=C[C@@H](CO)O2)c(=O)[nH]c1=O` [zerit, stavudine], for which the “rate or risk of lipodystrophy” value in data set [1] was “at least 40%”.

In the case of `O=C1CC[C@@]2(O)[C@H]3Cc4ccc(O)c5c4[C@@]2(CCN3CC2CC2)[C@H]1O5` [naltrexone, Naltrexone], the “effect on the patient's HIV condition” value in data set [2] is “stabilizing effect”. Besides, the “patients with sleep disturbance lasting more than two or three days” value in data set [3] (4.5 mg. dosage per day) is reported as approximately 3%. Also, the “side effects or toxicity” value in data set [3] (low dose levels) is “minimal side effects or evidence of toxicity”. Further, in data set [4] (3.0 mg qhs added to ARV, 12 months, from 620), the “serum triglycerides after resuming LDN” value is given as 140. Further, the “reduction of "buffalo hump"” value in data set [4] (3 mg qhs added to ARV, nine months) is given as “about 50%”. The “serum cholesterol after resuming naltrexone” value was found to be 190 in data set [4] (3 mg qhs added to ARV) and 220 in data set [4] (3 mg qhs added to ARV, listed as LDN). Further, the “other physical signs (subcutaneous tissue, breast size)” value in data set [4] (setting [7]) was “returned”; in data set [4] (setting [8]) it was “about one-half”. In addition, the waist size outcome is given as “gradually reduced to its former size; also recorded: returned to their previous normal state” in data set [4] (setting [7]) and “partially cleared by about one-half” in data set [4] (setting [8]). For the same compound, the “decrease in waist size” value in data set [4] (4.5 mg qhs added to ARV, eight weeks) was 4 ″. The compound also gave an insulin need in data set [4] (4.5 mg qhs added to ARV, four weeks, from 90 units) of 20 units per day. The waist size in data set [4] (4.5 mg qhs added to ARV, three months, from 44″) is 40 ″. Further, the “"buffalo hump" outcome” value is “completely disappeared; also recorded: shrank and eventually disappeared” in data set [4] (3.0-4.5 mg qhs added to ARV, single cases); “about one-half; also recorded: largely disappeared” in data set [4] (3.0-4.5 mg qhs added to ARV, single cases, listed as LDN). In addition, the “signs of lipodystrophy overall” value in data set [4] (3.0-4.5 mg qhs added to ARV, single cases, about eight months, listed as LDN) was “gradually disappeared; also recorded: complete reversal; also recorded: gradual clearing in the residual signs”.

Turning to `CC(C)(C)NC(=O)[C@@H]1CN(Cc2cccnc2)CCN1C[C@@H](O)C[C@@H](Cc1ccccc1)C(=O)N[C@H]1c2ccccc2C[C@H]1O` [indinavir], in data set [5], the persistent side effects entry is recorded as “mild nausea”.

In the case of `Cc1c(O)cccc1C(=O)N[C@@H](CSc1ccccc1)[C@H](O)CN1C[C@H]2CCCC[C@H]2C[C@H]1C(=O)NC(C)(C)C` [nelfinavir], the “change in viral levels after substitution of indinavir” value in data set [6] is “did not result in any appreciable change in viral levels”. In addition, in data set [5], the “side effect associated with the drug” value is given as “persistent diarrhea”.

On to `Cc1ccnc2c1NC(=O)c1cccnc1N2C1CC1` [nevirapine], for which, in data set [5], the “patients developing body-wide allergic rashes with hives and itching” value was “Seven”.
